According to patent publication US7863414B2, “Methods of treatment and uses for CaMKII and its interaction with HDACs and calpain” (The Board of Regents of the University of Texas Systems, priority 2005, dated 2011):
“Also recorded” adds a separate entry of the source.

Tests used:
MEF2 = assay: Reporter assay of endogenous MEF2 activity (3xMEF2-Luc) in NRVMs; type: cell-based, rat; conditions: ionomycin 0.25 μmol/l; for Effect on ionomycin-induced increase of endogenous MEF2 activity: NRVMs pretreated 30 min, Gö6976 200 nmol/l, KN93 2.5 μmol/l, KN62 5 μmol/l, CSA 1 μmol/l
Procedure: Endogenous MEF2 activity in NRVMs. One day after plating, a MEF2 dependent luciferase reporter (3xMEF2-Luc)56, carrying three MEF2-DNA binding sites, was transfected into NRVMs using Lipofectamine plus (Invitrogen; Carlsbad, Calif.). To control for transfection efficiency NRVMs were cotransfected with a β-galactosidase reporter plasmid (pCMV-lacZ). Twenty-four hours after transfection, NRVMs were starved for 24 h, pretreated with kinase inhibitors or cyclosporine for 30 min and stimulated with ionomycin for 24 h. Luciferase and β-galactosidase levels were quantified employing the Luciferase Assay Kit (Promega) and the FluoReporter Kit (Molecular probes), respectively.

HDAC4 [1] = assay: Nuclear export of Flag-HDAC4 in cardiomyocytes (NRVMs), immunofluorescence; type: cell-based, rat; conditions: for Effect of kinase inhibitor on PE-induced nuclear export of HDAC4: adenoviral Flag-HDAC4, inhibitor pretreatment 30 min, PE 4 hrs, Stauro 500 nmol/l, KN93 5 μmol/l, KN62 10 μmol/l, AIPII-2 500 nmol/l, Bis 2.5 μmol/l, Gö6976 200 nmol/l, H89 1 μmol/l; for Nuclear export of HDAC4 induced by adrenergic agonist: Flag-HDAC4, PE or Iso 10 μmol/l, up to 4 hrs
From the text: (§1) Cardiomyocyte culture and adenoviral infection. NRVMs were isolated from 1-2 day Sprague Dawley rats. For adenovirus production, cDNAs encoding FLAG-tagged HDAC4 wild-type or a mutant containing alanines in place of serines 246, 467 and 632 (S/A) were subcloned into the pACCMV vector and co-transfected with pJM17 into 293 cells. Primary lysates were used to re-infect 293 cells and viral plaques were obtained using the agar overlay method. The production of adenoviral GFP-HDAC5 was described previously 18. NRVMs were infected 24 h after plating, starved for 4 h, and stimulated with PE or Iso for the indicated time period. In experiments with kinase inhibitors, NRVMs were pretreated with the inhibitor 30 min prior stimulation. For assessing cardiomyocyte hypertrophy, NRVMs were starved for 24 h and stimulated with PE for another 24 hrs. Subcellular localization of Flag-HDAC4 and cardiomyocyte hypertrophy, as assessed by sarcomeric organization, was determined by indirect immunofluorescence.
(§2) Indirect Immunofluorescence. COS cells were grown on glass coverslips, fixed in paraformaldehyde (4%), permeabilized in 0.1% Triton-X-100 and blocked in PBS containing goat serum (5%). Primary antibodies against FLAG (monoclonal or rabbit; Sigma), Myc (polyclonal, A-14; Santa Cruz), or HA (polyclonal, Y-11; Santa Cruz) were used at a dilution of 1:200. Secondary antibodies conjugated to either fluoresceine or Texas Red (Vector Laboratories) were also used at a dilution of 1:200. Staining of NRVMs for sarcomeres was performed with an antibody directed against sarcomeric α-actinin (Sigma). All images were captured at a magnification of ×40.

HDAC5 = assay: Nuclear export of GFP-HDAC5 in cardiomyocytes (NRVMs); type: cell-based, rat; conditions: PE 4 hrs
From the text: as §1
Indirect Immunofluorescence. COS cells were grown on glass coverslips, fixed in paraformaldehyde (4%), permeabilized in 0.1% Triton-X-100 and blocked in PBS containing goat serum (5%). Primary antibodies against FLAG (monoclonal or rabbit; Sigma), Myc (polyclonal, A-14; Santa Cruz), or HA (polyclonal, Y-11; Santa Cruz) were used at a dilution of 1:200. […]

[2] = tested on: neonatal rat ventricular myocytes (NRVMs); assay: Cardiomyocyte hypertrophy in NRVMs; type: cell-based; conditions: data not shown
From the text: as §1

HDAC4 [3] = assay: Subcellular localization of HDAC4 in Cos cells with active CaMKIIδB mutants, leptomycin B treatment; type: cell-based; conditions: 12 hours
Procedure: as §2, with “Cell culture and transfection assays. COS cells were maintained in DMEM with fetal bovine serum (10%), L-glutamine (2 mM), and penicillin-streptomycin. Transfection of COS cells was performed with Fugene 6 (Roche Molecular Biochemicals) according to manufacturer's instructions. Indirect” for “Indirect”

HDAC4-GFP = assay: Cellomics high content assay, nuclear localization of HDAC4-GFP in COS cells transfected with activated CaMKII; type: cell-based; conditions: COS cells transfected with HDAC4-GFP and CaMKII; concentration range; fixed at 48 hrs; EC50 only in FIG. 12
Procedure: The plates are incubated at room temperature for 60 minutes.

## Cn1c2ccccc2c2c3c(c4c5ccccc5n(CCC#N)c4c21)C(=O)NC3 [Gö6976]
MEF2
  Effect on ionomycin-induced increase of endogenous MEF2 activity: did not affect
HDAC4 [1]
  Effect of kinase inhibitor on PE-induced nuclear export of HDAC4: did not affect

## O=S(=O)(NCCNC/C=C/c1ccc(Br)cc1)c1cccc2cnccc12 [H89]
HDAC4 [1]
  Effect of kinase inhibitor on PE-induced nuclear export of HDAC4: did not affect

## C[C@H](CCC(=O)O)C[C@H](C)C[C@H](C)C(=O)/C=C(\O)[C@H](C)C[C@H](C)C/C=C/[C@@H](C)[C@@H](O)[C@@H](C)[C@@H](O)C[C@@H]1CC[C@@](C)([C@H]2CC[C@@](C)([C@@H](C)O)O2)O1 [Ionomycin, ionomycin]
MEF2; NRVMs
  Endogenous MEF2 activity (3xMEF2-Luc) after stimulation: doubled

## CN([C@@H](Cc1ccc(OS(=O)(=O)c2cccc3cnccc23)cc1)C(=O)N1CCN(c2ccccc2)CC1)S(=O)(=O)c1cccc2cnccc12 [KN62]
MEF2
  Effect on ionomycin-induced increase of endogenous MEF2 activity: blocked
HDAC4 [1]
  Effect of kinase inhibitor on PE-induced nuclear export of HDAC4: markedly reduced; also recorded: effective in blocking

## COc1ccc(S(=O)(=O)N(CCO)c2ccccc2CN(C)C/C=C/c2ccc(Cl)cc2)cc1 [KN93]
MEF2
  Effect on ionomycin-induced increase of endogenous MEF2 activity: blocked
HDAC4 [1]
  Effect of kinase inhibitor on PE-induced nuclear export of HDAC4: markedly reduced; also recorded: effective in blocking
HDAC5; KN93 5 μmol/l pretreatment
  Effect on PE-induced nuclear export of HDAC5: not affected; also recorded: not blocked

## CN(C)CCCn1cc(C2=C(c3c[nH]c4ccccc34)C(=O)NC2=O)c2ccccc21 [bisindolylmaleimide I]
HDAC4 [1]
  Effect of kinase inhibitor on PE-induced nuclear export of HDAC4: did not affect

## CC(C)NCC(O)c1ccc(O)c(O)c1 (centres unmarked) [isoprenaline]
HDAC4 [1]
  Nuclear export of HDAC4 induced by adrenergic agonist: time-dependent nuclear export
HDAC4 [1]; listed as Iso
  Nuclear export of HDAC4 induced by adrenergic agonist: time-dependently induced nuclear export
[2]
  Hypertrophic growth response: evoked a hypertrophic growth response

## CCC(=C/[C@H](C)C/C=C/C(C)=C/[C@@H](C)C(=O)[C@@H](C)[C@H](O)[C@@H](C)C/C(C)=C/C(=O)O)/C=C/[C@@H]1OC(=O)C=C[C@@H]1C [leptomycin B]
HDAC4 [3]; absence or presence of constitutive nuclear active CaMKIIδb T287D/S332A
  Nuclear accumulation of HDAC4 after leptomycin B: completely accumulated in the nucleus; also recorded: accumulates in the nucleus
HDAC4 [3]; presence of cytosolic active CaMKIIδb T287D/K328N/K329N or CaMKIIδb T287D
  Nuclear accumulation of HDAC4 after leptomycin B: no accumulation
HDAC4-GFP
  Dose response of HDAC4-GFP nuclear localization (Nuc-Cyto): smooth dose response curves

## CNC[C@H](O)c1cccc(O)c1 [phenylephrine]
HDAC4 [1]
  Nuclear export of HDAC4 induced by adrenergic agonist: time-dependent nuclear export
HDAC4 [1]; listed as PE
  Nuclear export of HDAC4 induced by adrenergic agonist: time-dependently induced nuclear export
[2]
  Hypertrophic growth response: evoked a hypertrophic growth response
HDAC5
  Nuclear export of HDAC5 in response to agonist: exported

## CN[C@@H]1C[C@H]2O[C@@](C)([C@@H]1OC)n1c3ccccc3c3c4c(c5c6ccccc6n2c5c31)C(=O)NC4 [staurosporine]
HDAC4-GFP
  Dose response of HDAC4-GFP nuclear localization (Nuc-Cyto): smooth dose response curves

## autoctamide-2 related inhibitory peptide II [AIPII-2]
HDAC4 [1]
  Effect of kinase inhibitor on PE-induced nuclear export of HDAC4: effective in blocking
HDAC4 [1]; listed as AIPII
  Effect of kinase inhibitor on PE-induced nuclear export of HDAC4: markedly reduced
